Values after ≈ are worked out from the molar mass of the structure shown.
Columns and labels:
[1] = test system: Prevotella intermedia ATCC 25611; assay: Broth microdilution minimum inhibitory concentration, Prevotella intermedia; assay type: cell-based; details: for MIC: Prevotella intermedia, ATCC25611, read-out: MIC against Prevotella intermedia
Experimental: (§1) For anaerobes, 190 μL of sterile, pre-reduced Wilkins Chalgren (WC) anaerobe broth with 0.075% cysteine were added to the first well of the test series in a 96 well plate, followed by 100 μL in each of four additional test wells. Ten μL of filter-sterilized stock solution of licorice CO2 extract, prepared at 40 mg/mL in ethanol, was added to the first well of the series. Contents of the first well were mixed thoroughly and serially diluted (1:1) with the remaining four wells in the series; 100 μL were discarded from the final well in the series. Suspensions of Porphyromanas gingivalis ATCC 33277 or Prevotella. intermedia ATCC 25611, diluted to approximately 1×10^6 cfu (colony forming units) per mL, were added to the test wells in 100 μL quantities. Appropriate growth promotion and sterility controls were included. Plates were incubated at 37° C. anaerobically, until turbidity in the growth control well was observed. The MIC (minimum inhibitory concentration) was recorded as the lowest concentration inhibiting growth of the test organism as viewed with the unaided eye. Streptococcus mutans ATCC 25175 was tested in similar fashion, with Tryptic Soy Broth (TSB) as the test medium and incubation of plates at 37° C. with 5% CO2. Staphylococcus aureus ATCC 6538 was tested using Tryptic Soy Broth (TSB) as the test medium and incubation of plates at 37° C. Aspergillus niger ATCC 16404 was tested, with Tryptic Soy Broth (TSB) as the test medium and incubated at room temperature (25° C.).
(§2) Broth microdilution minimum inhibitory concentration was performed as follows. Ten μL of filter-sterilized stock solution of pure compound, licoricidin or licorisoflavan A, prepared at 1 mg/mL in ethanol, was added to the first well of the series. Contents of the first well were mixed thoroughly and serially diluted (1:1) with the remaining seven wells in the series; 100 μL were discarded from the final well in the series. Suspensions of Porphyromanas gingivalis ATCC 33277 or Prevotella. intermedia ATCC 25611, diluted to approximately 1×10^6 cfu (colony forming units) per mL, were added to the test wells in 100 μL quantities. Appropriate growth promotion and sterility controls were included. Plates were incubated at 37° C. anaerobically, until turbidity in the growth control well was observed. The MIC (minimum inhibitory concentration) was recorded as the lowest concentration inhibiting growth of the test organism as viewed with the unaided eye. Streptococcus mutans ATCC 25175 was tested in similar fashion, with Tryptic Soy Broth (TSB) as the test medium and incubation of plates at 37° C. with 5% CO2.

[2] = test system: Porphyromanas gingivalis ATCC 33277; assay: Broth microdilution minimum inhibitory concentration, Porphyromonas gingivalis; assay type: cell-based; details: for MIC: Porphyromonas gingivalis, ATCC33277, read-out: MIC against Porphyromonas gingivalis
Experimental: as §1, §2

[3] = test system: Streptococcus mutans ATCC 25175; assay: Broth microdilution minimum inhibitory concentration, Streptococcus mutans; assay type: cell-based; details: for MIC: Streptococcus mutans, ATCC25175, read-out: MIC against Streptococcus mutans
Experimental: as §1, §2

[4] = Anti-inflammatory activity of the isolated components
[5] = broth microdilution, anaerobic 37° C., mode of triplicate
[6] = broth microdilution, TSB, 37° C. with 5% CO2, mode of triplicate

Row | Compound | MIC [1, 5] [µg/mL] | MIC against Prevotella intermedia (Chlorhexidine, Table 1A) ([1]; column head prints no unit) | MIC [2, 5] [µg/mL] | MIC against Porphyromonas gingivalis (Chlorhexidine, Table 1A) ([2]; column head prints no unit) | MIC [3, 6] [µg/mL] | MIC against Streptococcus mutans (Chlorhexidine, Table 1A) ([3]; column head prints no unit) | antimicrobial activity (MIC) against Porphyromonas gingivalis [2] [µg/mL] | antimicrobial activity (MIC) on Streptococcus mutans [3] [µg/mL] | activity as anti-inflammatory agents [4] | MIC against Prevotella intermedia [1, 5] [µg/mL] | MIC against Porphyromonas gingivalis [2, 5] [µg/mL] | MIC against Streptococcus mutans [3, 6] [µg/mL]
1 | [H]/N=C(\N/C(=N/[H])NCCCCCCNC(=N)NC(=N)Nc1ccc(Cl)cc1)Nc1ccc(Cl)cc1 [Chlorhexidine, reference compound] | 3.12 (≈ 6.18 µM) | 3.125 | 6.25 (≈ 12.4 µM) | 6.25 | 1.56 (≈ 3.09 µM) | 1.56 | – | – | – | – | – | –
2 | COc1c(CC=C(C)C)c(O)cc2c1C[C@H](c1ccc(O)c(CC=C(C)C)c1O)CO2 [Licoricidin, licoricidin] | 0.78 (≈ 1.84 µM) | – | 0.39 (≈ 0.919 µM) | – | 3.12 (≈ 7.36 µM) | – | 0.39 | 3.12 | excellent activity | – | – | –
3 | licorisoflavan A | – | – | – | – | – | – | – | 3.12 | excellent activity | 1.56 | 0.78 | 3.125
